From patent US20120010196A1, “METHODS OF TREATING NEURODEGENERATIVE DISORDERS AND DISEASES” (priority 2010, published 2012)

Experiments:
Format in all cases: cell-based
[1] = system: hippocampal neurons cultured from npc1−/− mice; assay: p-p53 immunoreactivity in axons and growth cones of npc1−/− hippocampal neurons; conditions: 10 μM Y-27632 for 18 h at DIV3
Method: (§1) Neuronal cultures. Cortical and hippocampal neurons were prepared from npc1+/+ and npc1−/− embryos at embryonic day 18 (E18); time-pregnant wild-type BALB/c or npc1+/− mice were obtained either from Charles River Laboratories (San Diego, Calif.) or from our breeding colony respectively. Neurons were cultured in NeuroBasal (GIBCO, Carlsbad, Calif.) with 10% bovine serum albumin (BSA), 2% B27, and 1% glutamine for three to four days before being used.
(§2) Treatment. For primary cultured neurons, chemicals (U18666A and inhibitors of various enzymes) were first dissolved in 10% DMSO before being diluted in cultured medium; final DMSO concentration was lower than 0.01%. […]
(§3) Immunofluorescent staining. […] Immunofluorescent signal was detected with a Nikon confocal microscope (Nikon TE 2000U with DEclipse C1 system; Melville, N.Y.).
(§4) Quantification of growth cone morphology and immunoreactivity. […] Quantification was done blindly by multiple researchers. Growth cones with less than 1 filopodium were considered collapsed; 100 growth cones were-quantified for each experimental group. Image J software was used to quantify immunoreactivity intensity of p-p53 and RhoA in axons and growth cones; the “total integrated density” was used instead of “average intensity”. Briefly, individual growth cones were outlined manually and the total integrated density was measured using Image J software. […]

[2] = system: axons and growth cones of hippocampal neurons from wild-type mice; assay: Immunofluorescence quantification of protein levels in axons and growth cones of wild-type hippocampal neurons
Method: as §1
(§5) Treatment. For primary cultured neurons, chemicals (U18666A and inhibitors of various enzymes) were first dissolved in 10% DMSO before being diluted in cultured medium; final DMSO concentration was lower than 0.01%. For in vivo treatment, hydroxyfasudil monohydrochloride (Sigma) was dissolved in double-distilled H2O and injected subcutaneously at 10 mg/kg, twice a day from postnatal day 7 to day 28.
(§6) Immunofluorescent staining. Hippocampal neurons were fixed with 4% paraformaldehyde in phosphate buffer (PB; pH 7.4) for 15 min. After washing with 1× phosphate buffer saline (PBS), cells were permeabilized with 0.05% Triton X-100 in 1×PBS for 15 min, and incubated with blocking buffer (3% BSA, 0.02% Triton X-100 in 1×PBS) for 15 min before being probed with primary antibodies. The following primary antibodies were used: anti-E6AP (1:1000), anti-phospho-p53 (1:250), anti-phospho-4EBP1 (1:1000), antiphospho-Mdm2 antibody (1:250), anti-phospho-p38 antibody (1:250), anti-RhoA antibody (1:1500). All primary antibodies were diluted in blocking buffer and incubated at 4° C. for 18 h. After six washes (6×10 min) with 1×PBS at room temperature, cells were incubated with secondary antibodies, Alexa488-anti-rabbit (1:500) or Alexa594-anti-mouse (1:500); both antibodies were diluted in blocking buffer and incubated at room temperature for one h. Cells were then washed with 1×PBS (6×10 min) and sealed with mounting medium (Vectashield; Vector Laboratories, Inc., Burlingame, Calif.) containing 49,69-diamidino-2-phenylindole (DAPI) to stain nuclei. Immunofluorescent signal was detected with a Nikon confocal microscope (Nikon TE 2000U with DEclipse C1 system; Melville, N.Y.).
(§7) Quantification of growth cone morphology and immunoreactivity. Confocal images were taken using the 60× oil-immersion objective. About 20-30 images were randomly selected from each culture dish (20 mm in diameter); at least four to six dishes from three to six independent culture preparations/experiments were used for each experimental group. Within an experiment, cultures used for different experimental groups and designed for comparison were stained simultaneously and imaged with the same acquisition parameters. Quantification was done blindly by multiple researchers. Growth cones with less than 1 filopodium were considered collapsed; 100 growth cones were-quantified for each experimental group. Image J software was used to quantify immunoreactivity intensity of p-p53 and RhoA in axons and growth cones; the “total integrated density” was used instead of “average intensity”. Briefly, individual growth cones were outlined manually and the total integrated density was measured using Image J software. For quantification of immunoreactivity in axons, a 50 μm fragment of axons from the neck of growth cones towards the cell body was selected and integrated density measured.

[3] = system: hippocampal neurons cultured from wild-type mice; assay: Quantification of growth cone collapse in cultured neurons from wild-type mice (U18666A-induced); conditions: Y-27632 10 μM pre-incubation for 2 h, then 5 μM U18666A for 2 min, DIV4; n=100 growth cones
Method: as §1, §5, §6, §7

[4] = system: hippocampal neurons cultured from npc1−/− mice; assay: Growth cone collapse in hippocampal neurons cultured from npc1−/− mice; conditions: 10 μM Y-27632 for 18 h at DIV3; vehicle 80±2%; n=100 growth cones
Method: as §1, §2, §3, §4

[5] = system: cortical neurons cultured from wild-type mice; assay: Immunoblotting analysis of various proteins in cultured cortical neurons (U18666A-induced changes); conditions: pre-treatment with Y-27632
Method: as §1, §5
Immunoprecipitation and immunoblotting procedures. For immunoprecipitation, cultured cortical neurons were lysed in lysis buffer [0.05 M Tris base, 0.9% NaCl, pH 7.6, and 0.5% Triton X-100 plus Protease Inhibitors Cocktail (1:100; EMD Biosciences) and phosphatase inhibitor cocktails (1:500; Sigma)]. Lysates were centrifuged at 16,000×g for 30 min at 4° C. Supernatant were then cleared with a mixture of protein A/Gagarose beads (each 50%) for 1 h at 4 uC, and after a brief spin, pellets were discarded. A small portion of the supernatants was used as input. The reminder of the supernatant was immunoprecipitated overnight with control IgG or Tau1 antibodies. Immunoprecipitates were captured by incubation with protein A/G-agarose beads for 3 h at 4° C. After several washes, the beads were resuspended in 2×SDS sample buffer [4% sodium dodecyl sulfate (SDS), 100 mM Tris-HCl (pH 6.8), 10% b-mercaptoethanol, 20% glycerol and 0.2% bromophenol blue] and boiled for 10 min. The resulting proteins were separated by SDS-PAGE, and transferred to polyvinylidene difluoride membranes for immunoblotting using previously described protocols.
Because the p-p53Δ and p-p53 bands were very close in immunoblots and the former was the predominant band, p-p53Δ levels were used as an index of p-p53 degradation. Immunoprecipitation was used to determine whether p-p53 truncation affected its association with the microtubule-associated protein tau, a protein that is abundantly and exclusively expressed in axons. p53 labeled by either anti-p-p53 or anti-p53 antibodies was immunoprecipitated by Tau1 antibodies (FIG. 5B).
Increased levels of p-p53Δ and p-Mdm2 were quantified using the ImageJ program (National Institutes of Health, Bethesda, Md.). The quantified levels are contained in Table 1 below.

C[C@@H](N)[C@H]1CC[C@H](C(=O)Nc2ccncc2)CC1.Cl.Cl [Y-27632, trans-4-[(1R)-1-Aminoethyl]-N-4-pyridinylcyclohexanecarboxamide dihydrochloride]
p-p53 immunoreactivity in axons and growth cones [1]: increased
effect on U18666A-induced decrease in p-p53 immunoreactivity in axons and growth cones ([2]; Y-27632 10 μM 2 h pretreatment, 5 μM U18666A 2 min): reversed
effect on U18666A-induced reduction of "mutant" p53 in axons and growth cones ([2]; pre-incubation with 10 μM Y27632): blocked
growth cone collapse [3]: 41±1%
growth cone collapse [4]: 48±1%
effect on U18666A-induced increase in levels of phosphorylated LIM kinase (immunoblot) [5]: significantly reduced
effect on U18666A-induced increase in p38 and Mdm2 phosphorylation, protein ubiquitination and RhoA levels (immunoblot) [5]: did not block
effect on U18666A-induced p-p53 truncation (immunoblot) [5]: significantly reduced
